Blank lines part the entries; values can stand above or below the molecule they belong to.
Columns and labels:
Experiment in all cases: Standardized radiometric kinase assays, percentage of activity at 0.5 μM;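 also: Read-out is ³³P-labelled substrate protein phosphorylated by each kinase, captured on filters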
[1] = target: each individual kinase of the panel (Homo sapiens, UniProt O14733); conditions: for % Activity: MKK7β(h)
[2] = target: each individual kinase of the panel (Homo sapiens, UniProt O14757); conditions: for % Activity: CHK1(h)
[3] = target: each individual kinase of the panel (Homo sapiens, UniProt O14965); conditions: for % Activity: Aurora-A(h)
[4] = target: each individual kinase of the panel (Homo sapiens, UniProt O15111); conditions: for % Activity: IKKα(h)
[5] = target: each individual kinase of the panel (Homo sapiens, UniProt O43293); conditions: for % Activity: ZIPK(h)
[6] = target: each individual kinase of the panel (Homo sapiens, UniProt O60674); conditions: for % Activity: JAK2(h)
[7] = target: each individual kinase of the panel (Homo sapiens, UniProt O94804); conditions: for % Activity: LOK(h)
[8] = target: each individual kinase of the panel (Homo sapiens, UniProt P00533, L858R); conditions: for % Activity: EGFR(L858R)(h)
[9] = target: each individual kinase of the panel (Homo sapiens, UniProt P00533, L858R/T790M); conditions: for % Activity: EGFR(T790M,L858R)(h)
[10] = target: each individual kinase of the panel (Homo sapiens, UniProt P00533, T790M); conditions: for % Activity: EGFR(T790M)(h)
[11] = target: each individual kinase of the panel (Homo sapiens, UniProt P08581); conditions: for % Activity: Met(h)
[12] = target: each individual kinase of the panel (Homo sapiens, UniProt P10721, D816H); conditions: for % Activity: cKit(D816H)(h)
[13] = target: each individual kinase of the panel (Homo sapiens, UniProt P10721, V560G); conditions: for % Activity: cKit(V560G)(h)
[14] = target: each individual kinase of the panel (Homo sapiens, UniProt P19784); conditions: for % Activity: CK2α2(h)
[15] = target: each individual kinase of the panel (Homo sapiens, UniProt P35916); conditions: for % Activity: Flt4(h)
[16] = target: each individual kinase of the panel (Homo sapiens, UniProt P49137)
[17] = target: each individual kinase of the panel (Homo sapiens, UniProt P49841); conditions: for % Activity: GSK3β(h)
[18] = target: each individual kinase of the panel (Homo sapiens, UniProt P54756); conditions: for % Activity: EphA5(h)
[19] = target: each individual kinase of the panel (Homo sapiens, UniProt P68400); conditions: for % Activity: CK2(h)
[20] = target: each individual kinase of the panel (Homo sapiens, UniProt Q00534)
[21] = target: each individual kinase of the panel (Homo sapiens, UniProt Q04759); conditions: for % Activity: PKCθ(h)
[22] = target: each individual kinase of the panel (Homo sapiens, UniProt Q05397); conditions: for % Activity: FAK(h)
[23] = target: each individual kinase of the panel (Homo sapiens, UniProt Q13177); conditions: for % Activity: PAK2(h)
[24] = target: each individual kinase of the panel (Homo sapiens, UniProt Q13464); conditions: for % Activity: ROCK-I(h)
[25] = target: each individual kinase of the panel (Homo sapiens, UniProt Q8IW41); conditions: for % Activity: PRAK(h)
[26] = target: each individual kinase of the panel (Homo sapiens, UniProt Q9H422); conditions: for % Activity: HIPK3(h)
[27] = target: each individual kinase of the panel (Homo sapiens, UniProt Q9HBH9); conditions: for % Activity: Mnk2(h)
[28] = target: each individual kinase of the panel (Homo sapiens, UniProt Q9HCP0); conditions: for % Activity: CK1γ1(h)
[29] = target: each individual kinase of the panel (Homo sapiens, UniProt P41240)
each individual kinase of the panel (Homo sapiens, UniProt P41240), sequence (P41240 2-450 limits assumed): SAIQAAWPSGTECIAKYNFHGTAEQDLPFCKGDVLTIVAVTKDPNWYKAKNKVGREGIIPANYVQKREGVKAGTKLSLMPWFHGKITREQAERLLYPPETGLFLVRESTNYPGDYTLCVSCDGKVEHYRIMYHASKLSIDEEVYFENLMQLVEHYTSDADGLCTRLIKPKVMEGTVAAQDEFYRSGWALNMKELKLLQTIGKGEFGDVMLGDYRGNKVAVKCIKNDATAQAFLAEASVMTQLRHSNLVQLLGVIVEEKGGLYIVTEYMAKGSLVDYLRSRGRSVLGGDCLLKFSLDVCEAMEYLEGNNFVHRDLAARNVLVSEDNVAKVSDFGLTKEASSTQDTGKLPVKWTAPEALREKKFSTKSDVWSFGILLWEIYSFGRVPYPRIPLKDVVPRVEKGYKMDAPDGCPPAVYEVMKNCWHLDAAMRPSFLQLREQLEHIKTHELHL

each individual kinase of the panel (Homo sapiens, UniProt P10721, V560G), sequence (P10721 26-976 V560G limits assumed): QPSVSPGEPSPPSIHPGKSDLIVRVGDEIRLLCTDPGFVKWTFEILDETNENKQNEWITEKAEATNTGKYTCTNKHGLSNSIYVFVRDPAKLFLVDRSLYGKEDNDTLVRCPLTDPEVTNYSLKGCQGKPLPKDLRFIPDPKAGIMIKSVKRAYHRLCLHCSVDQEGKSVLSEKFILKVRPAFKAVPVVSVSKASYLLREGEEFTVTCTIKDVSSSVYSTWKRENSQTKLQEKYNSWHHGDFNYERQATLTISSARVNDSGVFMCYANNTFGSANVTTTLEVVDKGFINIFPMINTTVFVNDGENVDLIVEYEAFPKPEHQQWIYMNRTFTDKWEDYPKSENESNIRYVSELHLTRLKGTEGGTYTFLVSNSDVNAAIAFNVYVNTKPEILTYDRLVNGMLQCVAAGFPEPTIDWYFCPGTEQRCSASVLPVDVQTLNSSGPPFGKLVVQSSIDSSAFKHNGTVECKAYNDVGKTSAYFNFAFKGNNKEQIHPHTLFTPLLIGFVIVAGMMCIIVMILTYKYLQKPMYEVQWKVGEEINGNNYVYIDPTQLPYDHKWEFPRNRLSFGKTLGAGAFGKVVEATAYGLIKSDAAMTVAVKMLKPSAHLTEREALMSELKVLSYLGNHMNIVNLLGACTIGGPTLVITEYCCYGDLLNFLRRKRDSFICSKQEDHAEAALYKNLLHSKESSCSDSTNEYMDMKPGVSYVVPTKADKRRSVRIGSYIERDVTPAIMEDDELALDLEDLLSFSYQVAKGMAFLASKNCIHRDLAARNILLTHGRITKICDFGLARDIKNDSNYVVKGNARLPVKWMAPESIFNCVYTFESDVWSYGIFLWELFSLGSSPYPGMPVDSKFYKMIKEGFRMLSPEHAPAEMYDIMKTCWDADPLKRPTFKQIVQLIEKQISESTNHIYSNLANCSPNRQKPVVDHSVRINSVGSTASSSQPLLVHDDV
each individual kinase of the panel (Homo sapiens, UniProt Q13464), sequence (Q13464 2-1354 limits assumed): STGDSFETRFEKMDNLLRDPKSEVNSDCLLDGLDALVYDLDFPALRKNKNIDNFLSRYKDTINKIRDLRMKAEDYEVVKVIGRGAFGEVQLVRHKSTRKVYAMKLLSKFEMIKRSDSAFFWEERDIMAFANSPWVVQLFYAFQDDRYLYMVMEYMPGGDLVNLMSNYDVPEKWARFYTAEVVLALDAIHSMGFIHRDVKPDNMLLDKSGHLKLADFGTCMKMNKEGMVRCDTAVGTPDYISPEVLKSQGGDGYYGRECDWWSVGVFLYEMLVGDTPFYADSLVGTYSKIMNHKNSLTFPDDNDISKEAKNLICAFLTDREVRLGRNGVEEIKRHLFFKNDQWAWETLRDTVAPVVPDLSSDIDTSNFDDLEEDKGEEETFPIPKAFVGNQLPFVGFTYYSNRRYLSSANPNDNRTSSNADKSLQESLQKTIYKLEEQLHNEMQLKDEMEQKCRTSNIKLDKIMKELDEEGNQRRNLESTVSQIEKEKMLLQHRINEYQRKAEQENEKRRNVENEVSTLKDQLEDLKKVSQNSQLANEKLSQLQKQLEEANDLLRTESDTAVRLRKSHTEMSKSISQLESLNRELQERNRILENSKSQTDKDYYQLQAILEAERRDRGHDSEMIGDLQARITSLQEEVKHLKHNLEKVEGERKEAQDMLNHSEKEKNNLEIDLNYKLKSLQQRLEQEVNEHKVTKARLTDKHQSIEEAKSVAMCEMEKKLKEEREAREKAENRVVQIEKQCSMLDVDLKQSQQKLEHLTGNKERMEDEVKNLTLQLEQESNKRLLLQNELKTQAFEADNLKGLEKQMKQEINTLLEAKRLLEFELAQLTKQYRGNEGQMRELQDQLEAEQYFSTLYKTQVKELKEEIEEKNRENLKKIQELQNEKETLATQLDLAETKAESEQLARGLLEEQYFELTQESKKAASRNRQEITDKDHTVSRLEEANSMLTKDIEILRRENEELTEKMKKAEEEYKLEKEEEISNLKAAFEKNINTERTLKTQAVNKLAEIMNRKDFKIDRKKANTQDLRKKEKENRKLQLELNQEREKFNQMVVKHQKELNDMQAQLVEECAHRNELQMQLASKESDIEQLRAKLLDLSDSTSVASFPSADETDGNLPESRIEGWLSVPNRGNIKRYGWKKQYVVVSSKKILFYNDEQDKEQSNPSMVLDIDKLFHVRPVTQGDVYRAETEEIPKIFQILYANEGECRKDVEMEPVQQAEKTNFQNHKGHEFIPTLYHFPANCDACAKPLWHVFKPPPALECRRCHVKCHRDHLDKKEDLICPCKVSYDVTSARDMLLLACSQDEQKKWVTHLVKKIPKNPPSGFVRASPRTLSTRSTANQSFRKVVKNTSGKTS
each individual kinase of the panel (Homo sapiens, UniProt P54756), sequence (P54756 25-1037 limits assumed): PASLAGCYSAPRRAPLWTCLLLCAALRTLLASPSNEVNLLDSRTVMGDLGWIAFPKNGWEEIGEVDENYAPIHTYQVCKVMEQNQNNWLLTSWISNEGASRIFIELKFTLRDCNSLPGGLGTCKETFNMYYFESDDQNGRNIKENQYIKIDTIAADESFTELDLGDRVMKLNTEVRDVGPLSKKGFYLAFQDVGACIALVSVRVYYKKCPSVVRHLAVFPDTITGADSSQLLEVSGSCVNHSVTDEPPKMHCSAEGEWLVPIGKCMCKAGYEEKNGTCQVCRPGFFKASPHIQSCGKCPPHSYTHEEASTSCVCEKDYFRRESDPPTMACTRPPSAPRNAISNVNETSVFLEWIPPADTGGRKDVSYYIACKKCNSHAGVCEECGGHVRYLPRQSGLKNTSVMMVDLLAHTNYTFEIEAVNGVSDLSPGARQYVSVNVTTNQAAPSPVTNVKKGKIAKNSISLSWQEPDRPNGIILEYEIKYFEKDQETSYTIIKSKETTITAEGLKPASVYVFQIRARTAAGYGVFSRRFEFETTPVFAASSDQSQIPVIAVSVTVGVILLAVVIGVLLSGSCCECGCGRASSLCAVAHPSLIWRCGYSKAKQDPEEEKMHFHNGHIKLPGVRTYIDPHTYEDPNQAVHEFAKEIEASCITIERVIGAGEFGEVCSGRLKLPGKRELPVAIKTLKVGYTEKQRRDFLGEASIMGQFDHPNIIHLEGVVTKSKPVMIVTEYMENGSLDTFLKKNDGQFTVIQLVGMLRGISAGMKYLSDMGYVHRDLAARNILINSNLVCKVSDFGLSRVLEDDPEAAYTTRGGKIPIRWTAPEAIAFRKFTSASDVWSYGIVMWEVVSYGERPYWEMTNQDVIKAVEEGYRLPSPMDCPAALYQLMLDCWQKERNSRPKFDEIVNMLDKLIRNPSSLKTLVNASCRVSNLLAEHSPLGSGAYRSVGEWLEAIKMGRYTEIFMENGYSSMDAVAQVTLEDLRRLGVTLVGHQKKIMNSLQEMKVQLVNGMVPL
each individual kinase of the panel (Homo sapiens, UniProt P35916), sequence (P35916 25-1363 limits assumed): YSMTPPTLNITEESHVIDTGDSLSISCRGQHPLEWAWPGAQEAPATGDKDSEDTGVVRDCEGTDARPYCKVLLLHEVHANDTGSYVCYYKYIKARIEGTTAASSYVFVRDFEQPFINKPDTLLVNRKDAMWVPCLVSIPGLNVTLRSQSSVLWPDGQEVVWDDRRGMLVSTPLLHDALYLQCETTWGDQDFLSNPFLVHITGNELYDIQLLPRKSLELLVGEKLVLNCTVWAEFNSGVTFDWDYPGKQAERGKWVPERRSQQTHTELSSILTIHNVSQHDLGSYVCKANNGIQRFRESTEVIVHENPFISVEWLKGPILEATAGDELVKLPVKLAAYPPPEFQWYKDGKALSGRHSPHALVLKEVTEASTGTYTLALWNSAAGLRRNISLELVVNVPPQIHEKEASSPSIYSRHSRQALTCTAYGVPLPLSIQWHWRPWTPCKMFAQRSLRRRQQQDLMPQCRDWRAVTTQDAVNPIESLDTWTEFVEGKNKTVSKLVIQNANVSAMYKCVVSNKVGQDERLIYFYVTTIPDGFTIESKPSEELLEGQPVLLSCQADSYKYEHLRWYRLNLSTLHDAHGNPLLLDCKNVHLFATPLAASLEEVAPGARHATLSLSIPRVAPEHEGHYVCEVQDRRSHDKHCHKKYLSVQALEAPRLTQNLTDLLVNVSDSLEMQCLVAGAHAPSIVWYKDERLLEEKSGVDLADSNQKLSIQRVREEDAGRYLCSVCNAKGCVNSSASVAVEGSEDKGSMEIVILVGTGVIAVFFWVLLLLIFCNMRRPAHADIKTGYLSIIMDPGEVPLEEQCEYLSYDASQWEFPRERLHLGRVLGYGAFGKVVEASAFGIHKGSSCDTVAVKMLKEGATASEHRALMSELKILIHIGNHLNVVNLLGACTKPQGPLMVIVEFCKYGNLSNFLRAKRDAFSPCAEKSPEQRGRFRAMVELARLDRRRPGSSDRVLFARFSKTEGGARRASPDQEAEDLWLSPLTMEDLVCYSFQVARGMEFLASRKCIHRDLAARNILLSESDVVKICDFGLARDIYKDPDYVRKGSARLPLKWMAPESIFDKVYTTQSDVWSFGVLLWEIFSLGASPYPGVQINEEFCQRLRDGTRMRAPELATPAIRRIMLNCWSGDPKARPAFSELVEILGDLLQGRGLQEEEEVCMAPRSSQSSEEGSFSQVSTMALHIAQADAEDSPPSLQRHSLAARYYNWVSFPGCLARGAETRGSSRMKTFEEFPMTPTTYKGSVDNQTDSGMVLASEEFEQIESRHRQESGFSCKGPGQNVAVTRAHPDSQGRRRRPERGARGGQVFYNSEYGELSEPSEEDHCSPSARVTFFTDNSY

Structure (SMILES): NC(=O)c1cccc2c1nc(Nc1cccc(Cl)c1)c1ccncc12 [B]
% Activity [1]: 75% | % Activity [2]: 91% | % Activity [3]: 77% | % Activity [4]: 99% | % Activity [5]: 19% | % Activity [6]: 55% | % Activity [7]: 87% | % Activity [8]: 56% | % Activity [9]: 59% | % Activity [10]: 76% | % Activity [11]: 96% | % Activity [12]: 9% | % Activity [13]: 33% | % Activity [14]: 51% | % Activity [15]: 41% | % Activity ([16]; MAPKAP-K2(h)): 104% | % Activity [17]: 25% | % Activity [18]: 93% | % Activity [19]: 48% | % Activity ([20]; CDK6/cyclinD3(h)): 63% | % Activity [21]: 83% | % Activity [22]: 106% | % Activity [23]: 108% | % Activity [24]: 97% | % Activity [25]: 84% | % Activity [26]: −1% | % Activity [27]: 33% | % Activity [28]: 71%

Structure (SMILES): Clc1ccccc1Nc1nc2c(-c3nnc[nH]3)cccc2c2cnccc12 [A]
% Activity [1]: 81% | % Activity [2]: 108% | % Activity [3]: 43% | % Activity [4]: 108% | % Activity [5]: 100% | % Activity [6]: 39% | % Activity [7]: 63% | % Activity [8]: 56% | % Activity [9]: 20% | % Activity [10]: 53% | % Activity [11]: 22% | % Activity [12]: 8% | % Activity [13]: 38% | % Activity [14]: 73% | % Activity [15]: 17% | % Activity [17]: 23% | % Activity [18]: 95% | % Activity [19]: 58% | % Activity [21]: 39% | % Activity [22]: 30% | % Activity [23]: 106% | % Activity [24]: 94% | % Activity [25]: 97% | % Activity [26]: 2% | % Activity [27]: 54% | % Activity [28]: 30%

Structure (SMILES): C#Cc1cccc(Nc2nc3cc(C(=O)O)ccc3c3cncnc23)c1 [drawing 1135]
MAP2K7 beta percentage of activity [1]: −33% | CHK1 percentage of activity [2]: 1% | AURKA percentage of activity [3]: 6% | IKK alpha percentage of activity [4]: −1% | DAPK3 percentage of activity [5]: 88% | JAK2 percentage of activity [6]: 1% | EGFR(T790M) percentage of activity [10]: 8% | MET percentage of activity [11]: −22% | cKit(D816H) percentage of activity [12]: −1% | cKit(V560G) percentage of activity [13]: −11% | FLT4 percentage of activity [15]: 101% | CSK percentage of activity [29]: −46% | MAPKAPK2 percentage of activity [16]: −7% | GSK3B percentage of activity [17]: 44% | EPHA5 percentage of activity [18]: −25% | CDK6/cyclinD3 percentage of activity [20]: −8% | PRKCT percentage of activity [21]: −11% | FAK percentage of activity [22]: 3% | PAK2 percentage of activity [23]: −12% | ROCK-I percentage of activity [24]: 3% | MAPKAPK5 percentage of activity [25]: 7% | HIPK3 percentage of activity [26]: 90% | CK1 gamma 1 percentage of activity [28]: −5%

Now from value to molecule:

MAP2K7 beta percentage of activity [1]: 7% | CHK1 percentage of activity [2]: 13% | AURKA percentage of activity [3]: 3% | IKK alpha percentage of activity [4]: 3% | DAPK3 percentage of activity [5]: 87% | JAK2 percentage of activity [6]: 38% | LOK percentage of activity [7]: 72% | EGFR(L858R) percentage of activity [8]: 24% | EGFR(T790M, L858R) percentage of activity [9]: 26% | EGFR(T790M) percentage of activity [10]: 16% | MET percentage of activity [11]: −16% | cKit(D816H) percentage of activity [12]: 87% | cKit(V560G) percentage of activity [13]: 69% | FLT4 percentage of activity [15]: 101% | CSK percentage of activity [29]: −9% | MAPKAPK2 percentage of activity [16]: −12% | GSK3B percentage of activity [17]: 28% | EPHA5 percentage of activity [18]: 12% | CDK6/cyclinD3 percentage of activity [20]: 12% | PRKCT percentage of activity [21]: 10% | FAK percentage of activity [22]: −2% | PAK2 percentage of activity [23]: 1% | ROCK-I percentage of activity [24]: 12% | MAPKAPK5 percentage of activity [25]: 22% | HIPK3 percentage of activity [26]: 91% | Mnk2 percentage of activity [27]: −2% | CK1 gamma 1 percentage of activity [28]: 10%
Structure (SMILES): C#Cc1cccc(Nc2nc3cc(C(=O)O)ccc3c3cnccc23)c1 [drawing 1137]

MAP2K7 beta percentage of activity [1]: 12% | CHK1 percentage of activity [2]: −1% | AURKA percentage of activity [3]: 11% | IKK alpha percentage of activity [4]: −13% | DAPK3 percentage of activity [5]: 34% | JAK2 percentage of activity [6]: −4% | LOK percentage of activity [7]: 56% | EGFR(L858R) percentage of activity [8]: 63% | EGFR(T790M, L858R) percentage of activity [9]: 48% | EGFR(T790M) percentage of activity [10]: 43% | MET percentage of activity [11]: −6% | cKit(D816H) percentage of activity [12]: 63% | cKit(V560G) percentage of activity [13]: 75% | CK2 alpha 2 percentage of activity [14]: 96% | FLT4 percentage of activity [15]: 40% | CSK percentage of activity [29]: 14% | MAPKAPK2 percentage of activity [16]: −2% | GSK3B percentage of activity [17]: 26% | EPHA5 percentage of activity [18]: 8% | CK2 alpha 1 percentage of activity [19]: 84% | CDK6/cyclinD3 percentage of activity [20]: 6% | PRKCT percentage of activity [21]: 1% | FAK percentage of activity [22]: 4% | PAK2 percentage of activity [23]: 4% | ROCK-I percentage of activity [24]: 11% | MAPKAPK5 percentage of activity [25]: 22% | HIPK3 percentage of activity [26]: 57% | Mnk2 percentage of activity [27]: 32% | CK1 gamma 1 percentage of activity [28]: 7%
Structure (SMILES): NC(=O)c1ccc2c(c1)nc(Nc1cccc(Cl)c1)c1ccncc12 [drawing 1138]

Reference: patent US8168651B2, “Protein kinase modulators” (Cylene Pharmaceuticals, Inc., priority 2008, dated 2012)
